This note sets out measurements from the pKa sets of Baltruschat and Czodrowski (2020).

Each structure is given as a SMILES string.

The conditions of one data set: acidic group.
As for `CC(=O)c1ccccc1NN=C(C(=O)c1ccccc1)C(=O)c1ccccc1`, the pKa – broadly, the negative logarithm of the acid dissociation constant – amounted to 9.2.
Take `Nc1ccc(S(=O)(=O)Nc2ccn(-c3ccc([N+](=O)[O-])cc3)n2)cc1`: the pKa was found to be 6.94.
On to `COCc1ccccc1C(=O)O`, for which the pKa was 3.85.
`NNC(=O)C(F)F` gave a pKa of 9.66.
With `SCCNc1ccccc1`, the pKa was 9.5.
On the same count and under the same terms, the result for `C[NH+](C)CCc1c[nH]c2cccc(O)c12` reads 8.47; that for `CCCCN(C(=O)c1cccc(O)c1)c1ccc(/N=N/c2ccc3c(c2)OCCOCCOCCOCCOCCO3)cc1`, 9.54.
In the case of `C[NH+]1C[C@@H](C(=O)O)C[C@@]2(O)c3cccc4[nH]cc(c34)C[C@H]12`, the pKa turned out to be 3.38.
For the compound `C=C1CC1C[C@H]([NH3+])C(=O)O` (stereo not given in full), the pKa came out at 2.4.
`Cc1ccc(O)cc1[N+](C)(C)C`: the pKa is 8.28.
On the same count and under the same terms, the result for `Cn1c(=O)c2cn[nH]c2n(C)c1=O` reads 9.26; that for `[NH3+]CCCCC#CC#CCCC(=O)O`, 4.15.
Turning to `Nc1cc[nH+]c2c1ncn2CCOCP(=O)([O-])O`, the pKa was 7.1.
In turn, `S=c1[nH]c(=S)c2[nH]cnc2[nH]1` gave a pKa of 5.02.
In turn, `C[C@H](CCC(=O)O)[C@H]1CC[C@H]2[C@@H]3[C@@H](O)C[C@@H]4C[C@H](O)CC[C@]4(C)[C@H]3CC[C@]12C` had a pKa of 5.08.
The compound `O=S(=O)([O-])c1cc(O)c2[nH]ncc2c1` returned a pKa of 8.
For `CC(C)CCP(=O)(O)CCC(C)C`, the pKa amounted to 3.26.
For `O=c1ccc2ccccc2cc1O`, the pKa came out at 10.
Compound `Cc1ccc(C(=O)O)c(I)c1` showed a pKa of 3.2.
Take `c1ccc(CCNc2ncnc3nc[nH]c23)cc1`: the pKa was 10.1.
Same read-out and setting: the result for `Cc1csc(S(N)(=O)=O)n1` reads 8.35; that for `Oc1ccc(O)cc1`, 9.93.
Compound `[NH3+]C(Cc1c[nH]c2ccccc12)C(=O)O` (stereo not given) gave a pKa of 2.48.
For `CC(=O)CC(=O)c1ccc[se]1`, the pKa came out at 8.55.
In the case of `CN(O)C(=O)c1ccccc1`, the pKa was found to be 8.07.
Compound `Cc1ccc2c(c1O)-c1c-2ccc(C)c1O` showed a pKa of 8.04.
Compound `Nc1c2[n-]cnc2nc[n+]1[O-]` returned a pKa of 13.
For the compound `NC(=O)CNCCCNCC(N)=O`, the pKa worked out at 7.27.
For the compound `C[NH+]1C[C@@H](C(=O)O)C[C@@]2(O)c3cccc4[nH]cc(c34)C[C@@H]12`, the pKa is 3.38.
With `N#Cc1ccc(-c2nnn[nH]2)cc1`, the pKa is 3.53.
Compound `Cc1ccc(C(=O)[O-])c(O)c1` registered a pKa of 13.8.
Compound `CO[C@H]1C[C@@H]1C(=O)O` showed a pKa of 4.47.
`O=Cc1c(O)cccc1Cl`: the pKa stood at 8.26.
Compound `C[N+]1(CCCCCC(=O)O)CCCCC1` registered a pKa of 4.44.
Regarding `C[C@H]1CC[C@H](C(=O)O)CC1`, the pKa worked out at 4.89.
On to `Cc1nc(N)cc(O)[nH+]1`, for which the pKa was found to be 1.7.
For the compound `CN(C)C(=O)/C=C(\O)c1ccncc1`, the pKa came out at 7.32.
In turn, `S=C(S)NC1CCCCC1` had a pKa of 2.95.
The same measure, in the same setting: the result for `O=Cc1ccncc1O` reads 6.77; that for `CSC(=S)N(C)CC(=O)O`, 2.98.
`[NH3+][C@@H](Cc1c[nH]c[nH+]1)C(=O)N[C@@H](Cc1c[nH]c[nH+]1)C(=O)O` displayed a pKa of 2.25.
As for `C/C(=N/O)c1ccc(O)cc1O`, the pKa amounted to 8.35.
On to `CC1=CC(=O)C=C(C)C1=NO`, for which the pKa was 8.04.
On the same count and under the same terms, the result for `O/N=C/c1ccc(Cl)cc1` reads 10.5.

Still in this data set, the particulars now being: basic group.
For `CCCNCC(=O)Nc1c(C)cccc1C`, the pKa is 8.01.
The same measure, in the same setting: the result for `O=C(Cc1ccccc1Nc1c(Cl)cccc1Cl)OCCN1CCOCC1` reads 7.52; that for `SCCNc1ccccc1`, 3.78.
On to `COc1nc(N)c2ncn([C@H]3O[C@@H](CO)[C@H](O)[C@@H]3O)c2n1`, for which the pKa is 3.2.
Same read-out and setting: the result for `CC1CCCN1C` (stereo not given) reads 10.2; that for `O=C([O-])c1ccccn1`, 5.32; that for `CC1(C)S[C@H]2C(C(=O)[O-])[NH+]=C(CCCC(N)C(=O)[O-])N2C1C(=O)[O-]` (stereo not given in full), 7.6.
In the case of `NCCNCCCO`, the pKa turned out to be 9.67.
Still for that read-out and setting: the result for `OCCc1ccccn1` reads 5.37; that for `C=CC(C)(C)Nc1ccccc1`, 4.88; that for `COc1cc(OC)c(OC)c(C(=O)N[C@H]2C[C@H]3CC[C@@H](C2)N3Cc2ccccc2)c1`, 8.84.
For the compound `CN1[C@@H]2CC[C@H]1[C@H](C(=O)[O-])[C@@H](O)C2`, the pKa was 9.7.
Turning to `O=C([O-])c1cnc2ccccc2c1`, the pKa worked out at 4.68.
The compound `[NH3+]CC(=O)NCCc1c[nH]cn1` gave a pKa of 6.76.
`Cn1cnc2c([O-])nc(N)nc21` came in with a pKa of 9.92.
For the compound `O=C1[C@H]2C[C@H](CN3CCCC[C@@H]23)C2=CCCCN12`, the pKa came out at 7.7.
Still for that read-out and setting: the result for `CCN(CC)CCSC1CCCCC1` reads 8.11; that for `O=C([O-])c1ccncc1`, 4.9.
Compound `NCC[NH2+]CCCO` came in with a pKa of 6.78.
Compound `O[C@H]1[C@H](O)[C@@H](n2cnc3ccccc32)OC[C@H]1O` yielded a pKa of 4.15.
`NC1=[NH+][C@H]2C[C@@H](N1)N[C@@H]2C(=O)[O-]`: the pKa was 5.5.
Still for that read-out and setting: the result for `c1ccc(CCNc2ncnc3nc[nH]c23)cc1` reads 4.2; that for `CC(C)(C)CC(C)(C)N`, 10.8; that for `Cc1c[nH]c(C)n1`, 8.39.
`c1c[nH]c(Cc2nc(Cc3c[nH]cn3)c[nH]2)n1` had a pKa of 7.26.
In turn, `Cc1cc(NCCC[NH+](C)C)c2c([N+](=O)[O-])cccc2n1` came in with a pKa of 6.41.
On the same count and under the same terms, the result for `O=C1c2ccccc2CN1C1CC2CCC(C1)N2Cc1ccccc1` (stereo not given) reads 8.71; that for `COC(=O)c1ncccn1`, -0.68.
`CCCSS/C(CCO)=C(/C)N(C=O)Cc1cnc(C)nc1N` returned a pKa of 5.52.
As for `COc1ccc(C[NH3+])cc1N`, the pKa worked out at 4.16.
`Cn1c(=O)c2c(ncn2CC(=O)[O-])n(C)c1=O` gave a pKa of 4.48.
`c1ccc(CNc2nc[nH+]c3[nH]cnc23)cc1` returned a pKa of -1.
For `CCCCCCCCCCCCN(CCO)CC(O)CC` (stereo not given), the pKa was determined as 6.4.
Compound `C[C@@H]([C@H](O)c1ccccc1)N(C)C` yielded a pKa of 9.22.
Take `CC(C)CN(CCS)CC(C)C`: the pKa came to 8.23.
In turn, `Cc1ccc2c(c1)ncn2[C@H]1O[C@@H](CO)[C@H](O)[C@@H](O)[C@@H]1O` yielded a pKa of 4.32.
The compound `c1ncc2c(n1)NCCN2` showed a pKa of 6.63.
Compound `NCCc1cccnc1` displayed a pKa of 9.44.
In turn, `Clc1cc(-c2ccccc2)nnc1NCCN1CCOCC1` yielded a pKa of 6.64.
`CCCNN` registered a pKa of 7.92.
`Cc1ncncc1N` gave a pKa of 3.15.
For the compound `COc1ccccc1/C(=N/CCCN(C)C)c1ccccc1`, the pKa came out at 9.
In turn, `NNC(=O)c1ccc([NH3+])cc1` showed a pKa of 2.05.
The same measure, in the same setting: the result for `Cc1noc(C)c1C` reads -1.
For `CC1CN2CCC1CC2` (stereo not given), the pKa turned out to be 11.3.
`O=Cc1ccncc1O` had a pKa of 4.05.
In turn, `CN(C)c1ccc2nc3ccc(N)cc3nc2c1` yielded a pKa of 6.6.
Still for that read-out and setting: the result for `Cc1ccccc1NC1CCCCC1` reads 5.34.
In turn, `Nc1ccc(Cl)cc1Cl` yielded a pKa of 2.07.
As for `O=[N+]([O-])c1ccc(-n2nnnc2/C=C/c2ccc(Cl)cc2)cc1`, the pKa is -3.05.
`CCCn1ccnc1CO` returned a pKa of 7.04.
